Among the data in patent US20240261417A1, “SOS1 DEGRADING AGENT AND PREPARATION METHOD THEREFOR AND APPLICATION THEREOF” (SHANGHAI LEADINGTAC PHARMACEUTICAL CO. LTD., priority 2021, published 2024) are IC50, DC50 and Dmax values, retold here.

One test addresses T1, KRAS-G12C/SOS1 (Homo sapiens, UniProt Q07889).
T1 construct: purchased Cisbio 63ADKOOOCB16PEG
T1 sequence (Q07889 1-1333): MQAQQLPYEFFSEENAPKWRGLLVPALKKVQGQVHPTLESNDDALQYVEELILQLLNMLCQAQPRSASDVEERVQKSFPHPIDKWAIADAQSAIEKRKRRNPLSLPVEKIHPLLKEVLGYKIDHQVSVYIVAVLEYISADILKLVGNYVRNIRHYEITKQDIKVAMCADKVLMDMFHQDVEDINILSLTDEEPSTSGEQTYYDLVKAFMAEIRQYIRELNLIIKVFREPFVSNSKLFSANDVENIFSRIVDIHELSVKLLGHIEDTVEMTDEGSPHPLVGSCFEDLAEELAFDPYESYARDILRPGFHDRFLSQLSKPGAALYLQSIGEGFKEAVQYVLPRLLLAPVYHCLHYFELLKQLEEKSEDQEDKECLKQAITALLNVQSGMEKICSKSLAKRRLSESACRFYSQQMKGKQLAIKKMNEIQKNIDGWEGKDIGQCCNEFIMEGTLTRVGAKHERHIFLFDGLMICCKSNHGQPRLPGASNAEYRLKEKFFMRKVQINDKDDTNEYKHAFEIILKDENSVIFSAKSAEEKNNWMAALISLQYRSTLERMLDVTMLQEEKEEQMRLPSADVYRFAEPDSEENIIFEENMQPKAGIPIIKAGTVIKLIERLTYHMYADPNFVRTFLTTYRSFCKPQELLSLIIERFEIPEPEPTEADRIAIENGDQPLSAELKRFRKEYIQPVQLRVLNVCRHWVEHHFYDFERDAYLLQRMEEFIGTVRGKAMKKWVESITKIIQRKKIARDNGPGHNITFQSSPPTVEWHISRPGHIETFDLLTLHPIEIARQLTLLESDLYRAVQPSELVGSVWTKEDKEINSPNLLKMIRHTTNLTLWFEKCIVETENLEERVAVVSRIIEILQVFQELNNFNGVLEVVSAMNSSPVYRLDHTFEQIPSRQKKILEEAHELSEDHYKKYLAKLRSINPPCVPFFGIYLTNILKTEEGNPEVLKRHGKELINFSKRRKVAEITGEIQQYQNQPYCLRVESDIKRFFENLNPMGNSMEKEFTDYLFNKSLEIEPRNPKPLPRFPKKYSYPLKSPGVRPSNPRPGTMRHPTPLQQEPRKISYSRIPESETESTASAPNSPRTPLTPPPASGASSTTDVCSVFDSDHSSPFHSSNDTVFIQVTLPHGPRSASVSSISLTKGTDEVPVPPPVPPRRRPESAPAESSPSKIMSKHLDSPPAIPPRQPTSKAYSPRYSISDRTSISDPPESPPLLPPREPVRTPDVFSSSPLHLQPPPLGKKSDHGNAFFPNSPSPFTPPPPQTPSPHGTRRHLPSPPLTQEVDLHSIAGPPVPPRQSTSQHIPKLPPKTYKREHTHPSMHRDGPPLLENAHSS
As to the kind of experiment: KRAS-G12C/SOS1 binding assay (HTRF). As to conditions: inhibition of KRAS-G12C/SOS1 binding. The procedure: The following method was used to determine the extent of inhibition of KRAS-G12C/SOS1 binding by the preferred compounds of the present invention under in vitro conditions. In this method, the competitive inhibition of KRAS-G12C/SOS1 binding by the preferred compounds was assayed by the homogeneous time-resolved fluorescence (HTRF) technology using the KRAS-G12C/SOS1 binding assay kit (Cisbio, 63ADKOOOCB16PEG).
The experimental procedures were as follows (refer to the kit instructions for details): the compounds of the present invention were each firstly dissolved in DMSO at a concentration of 20 mM, and then diluted in an equal gradient with a buffer in the kit, so that the final concentrations of the test compounds in the reaction system were in a range of 10000 nM-0.04 nM, and the final concentration of DMSO was 0.5%. 2 μL of the compounds were each incubated with 4 μL of 1×Tag1-SOS1, 4 μL of 1×Tag2-KRAS-G12C (containing 10 μM guanosine triphosphate, GTP) at 25° C. for 15 min. Then 5 μL of 1× Anti-Tag1-Tb3+ and 5 μL of 1× Anti-Tag2-XL665 were added to the reaction system, and the mixture was incubated on ice for 3 h. After the incubation, the fluorescence intensity of each well was measured at the excitation wavelength of 337 nm, the fluorescence intensity of each well was read at the emission wavelengths of 620 nm and 665 nm on a microplate reader EnVision (PerkinElmer, 2105) in an HTRF mode, and the Ratio value was calculated by the formula Ratio=(665 nm/620 nm)×[…]. The inhibition rates of the compounds at each concentration were calculated by comparing the fluorescence intensity ratio with that of the control group, and then nonlinear curve fitting was performed by GraphPad Prism 8 in the logarithmic concentration-inhibition rate to obtain the IC50 values of the compounds, as shown in Table 1.

For the next test, the target named is T2, SOS1 protein (Homo sapiens, UniProt Q07889).
T2 sequence (Q07889 1-1333): T1 sequence (Q07889 1-1333)
In words: SOS1 degradation assay (Western blot), NCI-H358 cells. The test is classed as cell-based. Details: The degradation of SOS1 by the compounds was investigated on KRAS G12C mutant human non-small cell lung cancer cells NCI-H358; host or cells: NCI-H358 (human cancer cell lines). Conditions: SOS1 degradation, NCI-H358 cells, 24 h, Western blot; for DC50: read-out: NCI-H358 (G12C) DC50; for Dmax: read-out: NCI-H358 (G12C) Dmax. A digest of the protocol:
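Cells at 5×10^5 per well were treated for 24 h at 37 °C with compound at 0.03–3000 nM final. SOS1 in lysates was measured by Western blot with chemiluminescent densitometry and normalised to the control group. DC50 and Dmax came from nonlinear fits against log concentration.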
(In general: A western blot detects proteins with antibodies after separation by electrophoresis.)

Molecules are shown by their SMILES.

The term IC50 denotes the midpoint of a concentration-inhibition curve. Broadly, the DC50 is the concentration giving 50% degradation. As a reminder, the Dmax is the greatest extent of degradation seen. In turn, `CNCc1ccccc1-c1csc([C@@H](C)Nc2nc(C)nc3cc(OC)c([C@H]4CC[C@H](C(=O)N(C)CCCC5CCN(C(=O)c6ccc(Cl)c(N7CCC(=O)NC7=O)c6)CC5)CC4)cc23)c1` [Example 47, (1R,4R)—N-(3-(1-(4-chloro-3-(2,4-dioxotetrahydropyrimidin-1(2H)-yl)benzoyl)piperidin-4-yl)propyl)-4-(7-methoxy-2-methyl-4-(((R)-1-(4-(2-((methylamino)methyl)phenyl)thien-2-yl)ethyl)amino)quinazolin-6-yl)-N-methylcyclohexane-1-carboxamide] came in with an IC50 on KRAS-G12C/SOS1 of at most 15 nM. In addition, on SOS1 protein, the DC50 lay in the range of 1000 to 10000 nM and the Dmax was below 30%.
`COc1cc2nc(C)nc(N[C@H](C)c3cc(-c4c(Cl)cccc4CN(C)C)cs3)c2cc1[C@H]1CC[C@H](C(=O)N2CCC(CCCC3CCN(C(=O)c4ccc(Cl)c(N5CCC(=O)NC5=O)c4)CC3)CC2)CC1` [Example 79, 1-(2-chloro-5-(4-(3-(1-((1R,4R)-4-(4-(((R)-1-(4-(2-chloro-6-((dimethylamino)methyl)phenyl)thien-2-yl)ethyl)amino)-7-methoxy-2-methylquinazolin-6-yl)cyclohexane-1-carbonyl)piperidin-4-yl)propyl)piperidine-1-carbonyl)phenyl)dihydropyrimidine-2,4(1H,3H)-dione] showed an IC50 on KRAS-G12C/SOS1 of at most 15 nM. For the same compound, on SOS1 protein, the DC50 was in the range of 50 to 100 nM and the Dmax was in the range of 50 to 80%.
The corresponding values for `COc1cc2nc(C)nc(N[C@H](C)c3cc(-c4c(Cl)cccc4CN(C)C)cs3)c2cc1C1=CCC(C(=O)N2CCC(CCOCC3CCN(C(=O)c4ccc(Cl)c(C5CCC(=O)NC5=O)c4)CC3)CC2)CC1` (stereo partly drawn) [Example 46, 3-(2-chloro-5-(4-((2-(1-(4-(4-(((R)-1-(4-(2-chloro-6-((dimethylamino)methyl)phenyl)thien-2-yl)ethyl)amino)-7-methoxy-2-methylquinazolin-6-yl)cyclohex-3-ene-1-carbonyl)piperidin-4-yl)ethoxy)methyl)piperidine-1-carbonyl)phenyl)piperidine-2,6-dione] are at most 15 nM, below 50 nM and 50 to 80%.
The corresponding values for `COc1cc2nc(C)nc(N[C@H](C)c3cc(-c4c(Cl)cccc4CN(C)C)cs3)c2cc1[C@H]1CC[C@H](C(=O)N2CCC(CCCOC3CCN(C(=O)c4ccc(Cl)c(N5CCC(=O)NC5=O)c4)CC3)CC2)CC1` [Example 54, 1-(2-chloro-5-(4-(3-(1-((1R,4R)-4-(4-(((R)-1-(4-(2-chloro-6-((dimethylamino)methyl)phenyl)thien-2-yl)ethyl)amino)-7-methoxy-2-methylquinazolin-6-yl)cyclohexane-1-carbonyl)piperidin-4-yl)propoxy)piperidine-1-carbonyl)phenyl)dihydropyrimidine-2,4(1H,3H)-dione] are at most 15 nM, below 50 nM and 80 to 100%.
The corresponding values for `COCCOc1cc2nc(C)nc(N[C@H](C)c3cc(N)cc(C(F)(F)F)c3)c2cc1[C@H]1CC[C@H](C(=O)N2CCN(CC3CCC4(CC3)CCN(C(=O)c3ccc(Cl)c(N5CCC(=O)NC5=O)c3)CC4)CC2)CC1` [Example 43, 1-(5-(9-((4-((1R,4R)-4-(4-(((R)-1-(3-amino-5-(trifluoromethyl)phenyl)ethyl)amino)-7-(2-methoxyethoxy)-2-methylquinazolin-6-yl)cyclohexane-1-carbonyl)piperazin-1-yl)methyl)-3-azaspiro[5.5]undecane-3-carbonyl)-2-chlorophenyl)dihydropyrimidine-2,4(1H,3H)-dione] are at most 15 nM, below 50 nM and 50 to 80%.
`COc1cc2nc(C)nc(N[C@H](C)c3cccc4c3CCS4(=O)=O)c2cc1[C@H]1CC[C@H](C(=O)N2CCC(CCOCC3CCN(C(=O)c4ccc(C(F)(F)F)c(N5CCC(=O)NC5=O)c4)CC3)CC2)CC1` [Example 66, 1-(5-(4-((2-(1-((1R,4R)-4-(4-(((R)-1-(1,1-dioxido-2,3-dihydrobenzo[b]thiophen-4-yl)ethyl)amino)-7-methoxy-2-methylquinazolin-6-yl)cyclohexane-1-carbonyl)piperidin-4-yl)ethoxy)methyl)piperidine-1-carbonyl)-2-(trifluoromethyl)phenyl)dihydropyrimidine-2,4(1H,3H)-dione]: the IC50 at KRAS-G12C/SOS1 is at most 15 nM.
`[2H]C1([2H])CC(OCC2CCN(C(=O)[C@H]3CC[C@H](c4cc5c(N[C@H](C)c6cc(N)cc(C(F)(F)F)c6)nc(C)nc5cc4OC)CC3)CC2)CC([2H])([2H])N1C(=O)c1ccc(Cl)c(N2CCC(=O)NC2=O)c1` [Example 45, 1-(5-(4-((1-((1R,4R)-4-(4-(((R)-1-(3-amino-5-(trifluoromethyl)phenyl)ethyl)amino)-7-methoxy-2-methylquinazolin-6-yl)cyclohexane-1-carbonyl)piperidin-4-yl)methoxy)piperidine-1-carbonyl-2,2,6,6-d4)-2-chlorophenyl)dihydropyrimidine-2,4(1H,3H)-dione] returned an IC50 at KRAS-G12C/SOS1 of at most 15 nM. On SOS1 protein, the DC50 is 100 to 500 nM and the Dmax was in the range of 50 to 80%.
On to `COc1cc2nc(C)nc(N[C@H](C)c3cccc4c3CCS4(=O)=O)c2cc1[C@H]1CC[C@H](C(=O)N2CCC(CCOCC3CCN(C(=O)c4ccc(Cl)c(N5CCC(=O)NC5=O)c4)CC3)CC2)CC1` [Example 55, 1-(2-chloro-5-(4-((2-(1-((1R,4R)-4-(4-(((R)-1-(1,1-dioxido-2,3-dihydrobenzo[b]thiophen-4-yl)ethyl)amino)-7-methoxy-2-methylquinazolin-6-yl)cyclohexane-1-carbonyl)piperidin-4-yl)ethoxy)methyl)piperidine-1-carbonyl)phenyl)dihydropyrimidine-2,4(1H,3H)-dione], for which the IC50 at KRAS-G12C/SOS1 is at most 15 nM.
On the same count and under the same terms, then `COc1cc2nc(C)nc(N[C@H](C)c3cc(-c4c(Cl)cccc4CN(C)C)cs3)c2cc1[C@H]1CC[C@H](C(=O)N2CCC(CCOCC3CCN(C(=O)c4ccc(OC(F)(F)F)c(N5CCC(=O)NC5=O)c4)CC3)CC2)CC1` [Example 58, 1-(5-(4-((2-(1-((1R,4R)-4-(4-(((R)-1-(4-(2-chloro-6-((dimethylamino)methyl)phenyl)thien-2-yl)ethyl)amino)-7-methoxy-2-methylquinazolin-6-yl)cyclohexane-1-carbonyl)piperidin-4-yl)ethoxy)methyl)piperidine-1-carbonyl)-2-(trifluoromethoxy)phenyl)dihydropyrimidine-2,4(1H,3H)-dione], with at most 15 nM.
